Experimental data from US20230382869A1, “Phenyl-3,4-dihydroisoquinolin-2(1h)-yl-ethan-1-one derivatives as dopamine d1receptor positive allosteric modulators” (Eli Lilly and Company, priority 2020, published 2023).
Marks after values point to notes of the source that are not given here.

Tested on: human D1 receptor knock-in mice
Test: Basal (Habituated) Locomotor Activity
Type: in vivo, mouse
Settings: for Basal Locomotor Activity (Total Ambulations for 60 min) Means: N = 8/group
Method: Locomotor activity is measured using an automated system to track movement in mice. Monitoring of mouse locomotor activity behaviors take place in transparent plastic shoebox cages having dimensions of 45×25×20 cm, with a 1 cm depth of wood chips for absorbent bedding, and covered with a ventilated filtered plastic cage top. Cages were placed in a rectangular frame containing a grid of 12 photocell beams in an 8×4 configuration (Kinder Scientific, Poway, CA) that is positioned 2.5 centimeters from the floor of the cage for the detection of body movements (ambulations) and recorded by computer.
Male human D1 receptor knock-in mice are placed in chambers and allowed to habituate to the chambers for 60 min. During the habituation period, the mice show decreasing locomotion over time, as expected. Following administration of a compound of the invention, animal movement is found to increase in a dose-dependent fashion.
The mice are randomly assigned to treatment groups. In the dose response study, each mouse is placed individually into one of the locomotor activity boxes for a 60 min. habituation period. The mice are then dosed orally using test compound in a 20% hydroxypropyl-betacyclodextrin vehicle and using a 10 mL/kg dose volume. After dosing, the mice are placed back into the LMA boxes and the total number of ambulations is recorded per 10 min interval for each mouse over a 60 min measurement period. Statistical analysis is carried out using one-way ANOVA followed by post-hoc analysis using Dunnett's Comparison test.

Compound: C[C@H]1c2ccc(F)c(CCC(C)(C)O)c2C[C@H](CO)N1C(=O)Cc1c(F)cccc1Cl [Example 7, 2-(2-chloro-6-fluoro-phenyl)-1-[(1S,3R)-6-fluoro-3-(hydroxymethyl)-5-(3-hydroxy-3-methyl-butyl)-1-methyl-3,4-dihydro-1H-isoquinolin-2-yl]ethanone]
- Basal Locomotor Activity (Total Ambulations for 60 min) Means (3.0 mg/kg PO): 538
- Basal Locomotor Activity (Total Ambulations for 60 min) Means (6.0 mg/kg PO): 1111
- Basal Locomotor Activity (Total Ambulations for 60 min) Means (10 mg/kg PO): 1471***
- Basal Locomotor Activity (Total Ambulations for 60 min) Means (30 mg/kg PO): 3937****
- Basal Locomotor Activity (Total Ambulations for 60 min) Means (60 mg/kg PO): 4613****
- in vivo efficacy in locomotor activation (10, 30, and 60 mg/kg PO, habituated mice): significant in vivo efficacy
- basal movement (oral dose response, 3-60 mg/kg): increase basal movement in a dose dependent manner
